Patent US10968193B2, “Antidiabetic bicyclic compounds” (Merck Sharp & Dohme Corp., priority 2014, dated 2021)
Values joined by “and” are separate entries in the source; they are usually repeats but may differ in a detail not shown here. Identical values can stand only once.

biological target: T1, human GPR40 (Homo sapiens, UniProt O14842); assay: Inositol Phosphate Turnover (IP1) Assay 2; format: cell-based; conditions: HEK cells stably expressing human GPR40; 15,000 cells per well; compound acoustically transferred; CisBio IP-One kit
T1 construct: expressed in transfected cells; host or cells: HEK cells stably expressing the aequorin reporter
Experimental: Human and mouse GPR40 stable cell-lines were generated in CHO cells stably expressing NFAT BLA (Beta-lactamase). A human GPR40 stable cell-line was generated in HEK cells stably expressing the aequorin expressing reporter. The expression plasmids were transfected using lipofectamine (Life Technologies) following manufacturer's instructions. Stable cell-lines were generated following drug selection.
Inositol Phosphate Turnover (IP1) Assay 2:
The assay was performed in 384-well format. HEK cells stably expressing human GPR40 were plated at 15,000 cells per well in growth medium (DMEM/10% fetal calf serum). Cell plates were then incubated 16 hours at 37 degrees in a 5% CO2 incubator.
Measurement of Inositol Phosphate Turnover (IP1) was performed using the CisBio IP-One kit (Part number 62IPAPEB). After the 16 hour incubation, the cells were washed with HEPES buffer and 10 ul of stimulation buffer (prepared as described in the kit) was added to each well. In a separate plate, compounds were diluted in DMSO (400-fold over the final concentration in the assay well) and 25 nl was acoustically transferred to the appropriate well in the assay cell plate. The plates were then incubated for 60 minutes at 37 degrees. 10 ul of detection buffer (also prepared as described in the IP-One kit) was added to each well and the plates were incubated for 60 minutes in the dark. The plates were then read in a Perkin Elmer EnVision or equivalent reader able to measure FRET. Fluorescent ratio of emission at 665 and 620 nm was then converted to IP1 concentration by back calculating from an IP1 standard curve prepared at the time of the assay.

T1 sequence (O14842 whole entry): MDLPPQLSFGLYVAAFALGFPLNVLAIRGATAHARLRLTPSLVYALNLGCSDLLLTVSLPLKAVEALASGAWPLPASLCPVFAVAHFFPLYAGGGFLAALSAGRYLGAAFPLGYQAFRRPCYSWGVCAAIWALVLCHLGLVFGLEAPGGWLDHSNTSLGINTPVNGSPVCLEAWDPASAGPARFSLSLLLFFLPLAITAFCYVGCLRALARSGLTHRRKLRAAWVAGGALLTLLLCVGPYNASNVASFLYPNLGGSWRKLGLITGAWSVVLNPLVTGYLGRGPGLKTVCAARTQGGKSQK

Compound | EC50
COc1cc(-c2ccc(C3CCc4ccc([C@H](C5CC5)[C@H](C)C(=O)O)cc4O3)cc2CN2CCOC3(CC3)C2)c(F)cn1 (mixture of isomers) [Example 42] | 3.1 nM
COc1cc(-c2ccc(C3CCc4ccc([C@H](C5CC5)[C@H](C)C(=O)O)cc4O3)cc2CN2CCC(OC)CC2)c(F)cn1 (mixture of isomers) [Example 45] | 12 nM
COc1cc(-c2ccc(C3CCc4ccc([C@H](C5CC5)[C@H](C)C(=O)O)cc4O3)cc2CN2CC(F)C2)c(F)cn1 (mixture of isomers) [Example 47] | 3.5 nM
COc1cc(-c2ccc(C3CCc4ccc([C@H](C5CC5)[C@H](C)C(=O)O)cc4O3)cc2CN2CCC2(C)C)c(F)cn1 (mixture of isomers) [Example 49] | 4 nM
COc1cc(-c2ccc(C3CCc4ccc([C@H](C5CC5)[C@H](C)C(=O)O)cc4O3)cc2CN2CCCCC23CC3)c(F)cn1 (mixture of isomers) [Example 62] | 0.2 nM and 0.99 nM
COc1cc(-c2ccc(C3CCc4ccc([C@H](C5CC5)[C@H](C)C(=O)O)cc4O3)cc2CN2CC(C)(C#N)C2)c(F)cn1 (mixture of isomers) [Example 67] | 15 nM
COc1cc(-c2ccc(C3CCc4ccc([C@H](C5CC5)[C@H](C)C(=O)O)cc4O3)cc2CN2CC(C)(OC)C2)c(F)cn1 (mixture of isomers) [Example 73] | 8.2 nM
CCc1ccc(F)c(-c2ccc(C3CCc4ccc([C@H](C5CC5)[C@H](C)C(=O)O)cc4O3)cc2CN2CCCC2)c1 (mixture of isomers) [Example 75] | 17 nM
CCOc1cc(-c2ccc(C3CCc4ccc([C@H](C5CC5)[C@H](C)C(=O)O)cc4O3)cc2CN(CC)CC)c(F)cn1 (mixture of isomers) [Example 76] | 8.2 nM
COc1cc(-c2ccc(C3CCc4ccc([C@H](C5CC5)[C@H](C)C(=O)O)cc4O3)cc2CN2CCCC2)c(C#N)cn1 (mixture of isomers) [Example 78, (2S,3R)-3-(2-(4-(5-cyano-2-methoxypyridin-4-yl)-3-(pyrrolidin-1-ylmethyl)phenyl)chroman-7-yl)-3-cyclopropyl-2-methylpropanoic acid] | 8 nM
COc1cc(-c2ccc(C3CCc4ccc([C@H](C5CC5)[C@H](C)C(=O)O)cc4O3)c(CN3CCCC3)c2)ccn1 (mixture of isomers) [Example 112] | 5.6 nM
CCOc1cc(-c2ccc(C3CCc4ccc([C@H](C5CC5)[C@H](C)C(=O)O)cc4O3)cc2CN2CCCC2)c(Cl)cn1 (mixture of isomers) [Example 216] | 86 nM
CCOc1cc(-c2ccc(C3CCc4ccc([C@H](C5CC5)[C@H](C)C(=O)O)cc4O3)cc2CN2CCCC2)c(F)cn1 (mixture of isomers) [Example 74, (2S,3R)-3-cyclopropyl-3-(2-(4-(2-ethoxy-5-fluoropyridin-4-yl)-3-(pyrrolidin-1-ylmethyl)phenyl)chroman-7-yl)-2-methylpropanoic acid] | 9.3 nM
COc1cc(-c2ccc(C3CCc4ccc([C@H](C5CC5)[C@H](C)C(=O)O)cc4O3)cc2CN(C)C)c(F)cn1 (single isomer, unassigned) [Example 1a] | 2.3 nM
COc1cc(-c2ccc(C3CCc4ccc([C@H](C5CC5)[C@H](C)C(=O)O)cc4O3)cc2CN(C)C)c(F)cn1 (single isomer, unassigned) [Example 1b] | 2.9 nM
COc1cc(-c2ccc(C3CCc4ccc([C@H](C5CC5)[C@H](C)C(=O)O)cc4O3)cc2CN2CCCC2)c(F)cn1 (single isomer, unassigned) [Example 9a] | 3.9 nM
COc1cc(-c2ccc(C3CCc4ccc([C@H](C5CC5)[C@H](C)C(=O)O)cc4O3)cc2CN2CCCC2)c(F)cn1 (single isomer, unassigned) [Example 9b] | 3.4 nM
COc1cc(-c2ccc(C3CCc4ccc([C@H](C5CC5)[C@H](C)C(=O)O)cc4O3)cc2CN2CCOCC2)c(F)cn1 (single isomer, unassigned) [Example 11b] | 2.4 nM
COc1cc(-c2ccc(C3CCc4ccc([C@H](C5CC5)[C@H](C)C(=O)O)cc4O3)cc2CN2CC[C@H](F)C2)c(F)cn1 (single isomer, unassigned) [Example 25] | 2.3 nM
COc1cc(-c2ccc(C3CCc4ccc([C@H](C5CC5)[C@H](C)C(=O)O)cc4O3)cc2CN2CC[C@H](F)C2)c(F)cn1 (single isomer, unassigned) [Example 26] | 2.5 nM
COc1cc(-c2ccc(C3CCc4ccc([C@H](C5CCC5)[C@H](C)C(=O)O)cc4O3)cc2CN2CCCC2)c(F)cn1 (single isomer, unassigned) [Example 92] | 4 nM
COc1cc(-c2ccc(C3CCc4ccc([C@H](C5CCC5)[C@H](C)C(=O)O)cc4O3)cc2CN2CCCC2)c(F)cn1 (single isomer, unassigned) [Example 93] | 2.9 nM

Second part, the molecule after the results:

EC50 | Compound
1 nM | COc1cc(-c2ccc(C3CCc4ccc([C@H](C5CC5)[C@H](C)C(=O)O)cc4O3)cc2CN2CCC(F)(F)CC2)c(F)cn1 (mixture of isomers) [Example 46]
0.35 nM | COc1cc(-c2ccc(C3CCc4ccc([C@H](C5CC5)[C@H](C)C(=O)O)cc4O3)cc2CN(C2CC2)C2CC2)c(F)cn1 (mixture of isomers) [Example 52]
1.7 nM | COc1cc(-c2ccc(C3CCc4ccc([C@H](C5CC5)[C@H](C)C(=O)O)cc4O3)cc2CN(C2CC2)C2COC2)c(F)cn1 (mixture of isomers) [Example 53]
0.73 nM | COc1cc(-c2ccc(C3CCc4ccc([C@H](C5CC5)[C@H](C)C(=O)O)cc4O3)cc2CN2CCCC(C)(C)C2)c(F)cn1 (mixture of isomers) [Example 55]
0.18 nM | COc1cc(-c2ccc(C3CCc4ccc([C@H](C5CC5)[C@H](C)C(=O)O)cc4O3)cc2CN(C)C2CC2)c(F)cn1 (mixture of isomers) [Example 57]
0.98 nM | COc1cc(-c2ccc(C3CCc4ccc([C@H](C5CC5)[C@H](C)C(=O)O)cc4O3)cc2CN2CCOCC2(C)C)c(F)cn1 (mixture of isomers) [Example 59]
2 nM | COc1cc(-c2ccc(C3CCc4ccc([C@H](C5CC5)[C@H](C)C(=O)O)cc4O3)cc2CN2CC(F)(F)C2)c(F)cn1 (mixture of isomers) [Example 61]
2.3 nM | COc1cc(-c2ccc(C3CCc4ccc([C@H](C5CC5)[C@H](C)C(=O)O)cc4O3)cc2CN2CCCCC2)c(F)cn1 (mixture of isomers) [Example 63]
0.65 nM | COc1cc(-c2ccc(C3CCc4ccc([C@H](C5CC5)[C@H](C)C(=O)O)cc4O3)cc2CN2CCCC2(C)C)c(F)cn1 (mixture of isomers) [Example 66]
0.7 nM | COc1cc(-c2ccc(C3CCc4ccc([C@H](C5CC5)[C@H](C)C(=O)O)cc4O3)cc2CN2CCOCC23CCC3)c(F)cn1 (mixture of isomers) [Example 71]
1.7 nM | COc1cc(-c2ccc(C3CCc4ccc([C@H](C5CC5)[C@H](C)C(=O)O)cc4O3)cc2CN2CCOCC2)c(F)cn1 (single isomer, unassigned) [Example 11a]
0.76 nM | COc1cc(-c2ccc(C3CCc4ccc([C@H](C5CC5)[C@H](C)C(=O)O)cc4O3)cc2CN(C)CC(F)(F)F)c(F)cn1 (single isomer, unassigned) [Example 21]
0.46 nM | COc1cc(-c2ccc(C3CCc4ccc([C@H](C5CC5)[C@H](C)C(=O)O)cc4O3)cc2CN(C)CC(F)(F)F)c(F)cn1 (single isomer, unassigned) [Example 22]
1.7 nM | COc1cc(-c2ccc(C3CCc4ccc([C@H](C5CC5)[C@H](C)C(=O)O)cc4O3)cc2CN2CC[C@@H](F)C2)c(F)cn1 (single isomer, unassigned) [Example 23]
2.2 nM | COc1cc(-c2ccc(C3CCc4ccc([C@H](C5CC5)[C@H](C)C(=O)O)cc4O3)cc2CN2CC[C@@H](F)C2)c(F)cn1 (single isomer, unassigned) [Example 24]
1.5 nM | COc1cc(-c2ccc(C3CCc4ccc([C@H](C5CC5)[C@H](C)C(=O)O)cc4O3)cc2CN2CC[C@@H](C(F)(F)F)C2)c(F)cn1 (single isomer, unassigned) [Example 27]
1.4 nM | COc1cc(-c2ccc(C3CCc4ccc([C@H](C5CC5)[C@H](C)C(=O)O)cc4O3)cc2CN2CC[C@@H](C(F)(F)F)C2)c(F)cn1 (single isomer, unassigned) [Example 28]
0.8 nM | COc1cc(-c2ccc(C3CCc4ccc([C@H](C5CC5)[C@H](C)C(=O)O)cc4O3)cc2CN2CC[C@H](C(F)(F)F)C2)c(F)cn1 (single isomer, unassigned) [Example 29]
1.5 nM | COc1cc(-c2ccc(C3CCc4ccc([C@H](C5CC5)[C@H](C)C(=O)O)cc4O3)cc2CN2CC[C@H](C(F)(F)F)C2)c(F)cn1 (single isomer, unassigned) [Example 30]
0.95 nM | COc1cc(-c2ccc(C3CCc4ccc([C@H](C5CC5)[C@H](C)C(=O)O)cc4O3)cc2CN2CCC(F)(F)C2)c(F)cn1 (single isomer, unassigned) [Example 31]
0.84 nM | COc1cc(-c2ccc(C3CCc4ccc([C@H](C5CC5)[C@H](C)C(=O)O)cc4O3)cc2CN2CCC(F)(F)C2)c(F)cn1 (single isomer, unassigned) [Example 32]
